pIC50: −log10 of the molar value.
System: 855422-203-R-J1-PDC spheroids with HUVEC/MSC, viability
Experiment: Anticancer human tumor 855422-203-R-J1-PDC patient-derived bladder carcinoma cell line growth inhibition [PI3K]
Conditions: for pIC50: curve of first compound; for viability, T/C: stronger effect = lower value
How it was run: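 Tumor cells grown as multi-cell spheroids with HUVEC endothelial cells and MSC fibroblast-like stroma were treated with targeted agents combined with inavolisib, alpelisib, duvelisib or copanlisib. Doses fell in half-log steps from near clinical Cmax, else from 10 microM. Viability was measured.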
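Also: agents incubated with spheroids for one week before read-out.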
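For viability, T/C in this document: 100% = DMSO vehicle-treated control wells.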

`CCN1CCN(Cc2ccc(Nc3ncc(F)c(-c4cc(F)c5nc(C)n(C(C)C)c5c4)n3)nc2)CC1` + Cc1nc(NC(=O)N2CCCC2C(N)=O)sc1-c1ccnc(C(C)(C)C(F)(F)F)c1 showed a pIC50 (second compound 0.0316 µM) of 6.25, a pIC50 (second compound 0.1 µM) of 6.09 and a pIC50 (second compound 0.316 µM) of 6.85. The pIC50 (second compound 1 µM) was 7.92, the pIC50 (second compound 3.16 µM) was > 8.50 and the pIC50 (second compound 10 µM) was > 8.50. It also gave a viability, T/C (second compound 0.0316 µM, first compound 0.00316 µM) of 102%, a viability, T/C (second compound 0.0316 µM, first compound 0.01 µM) of 80.5% and a viability, T/C (second compound 0.0316 µM, first compound 0.0316 µM) of 97.1%. The viability, T/C (second compound 0.0316 µM, first compound 0.1 µM) was 70.4%, the viability, T/C (second compound 0.0316 µM, first compound 0.316 µM) was 60.1% and the viability, T/C (second compound 0.0316 µM, first compound 1 µM) was 40.6%. The viability, T/C (second compound 0.1 µM, first compound 0.00316 µM) was 99.9%, the viability, T/C (second compound 0.1 µM, first compound 0.01 µM) was 90.3% and the viability, T/C (second compound 0.1 µM, first compound 0.0316 µM) was 86%. For the same molecule, the viability, T/C (second compound 0.1 µM, first compound 0.1 µM) was 67.7%, the viability, T/C (second compound 0.1 µM, first compound 0.316 µM) was 60.6% and the viability, T/C (second compound 0.1 µM, first compound 1 µM) was 47.7%. For the same molecule, the viability, T/C (second compound 0.316 µM, first compound 0.00316 µM) was 80.3%, the viability, T/C (second compound 0.316 µM, first compound 0.01 µM) was 79.7% and the viability, T/C (second compound 0.316 µM, first compound 0.0316 µM) was 65.1%. It also gave a viability, T/C (second compound 0.316 µM, first compound 0.1 µM) of 54.9%, a viability, T/C (second compound 0.316 µM, first compound 0.316 µM) of 40.4% and a viability, T/C (second compound 0.316 µM, first compound 1 µM) of 28.2%. It also gave a viability, T/C (second compound 1 µM, first compound 0.00316 µM) of 57.2%, a viability, T/C (second compound 1 µM, first compound 0.01 µM) of 56.2% and a viability, T/C (second compound 1 µM, first compound 0.0316 µM) of 35.2%. The viability, T/C (second compound 1 µM, first compound 0.1 µM) was 34.7%, the viability, T/C (second compound 1 µM, first compound 0.316 µM) was 22% and the viability, T/C (second compound 1 µM, first compound 1 µM) was 20.2%. The viability, T/C (second compound 3.16 µM, first compound 0.00316 µM) was 37.1%, the viability, T/C (second compound 3.16 µM, first compound 0.01 µM) was 36.4% and the viability, T/C (second compound 3.16 µM, first compound 0.0316 µM) was 20.3%. It also gave a viability, T/C (second compound 3.16 µM, first compound 0.1 µM) of 18.8%, a viability, T/C (second compound 3.16 µM, first compound 0.316 µM) of 15.4% and a viability, T/C (second compound 3.16 µM, first compound 1 µM) of 16.1%. For the same molecule, the viability, T/C (second compound 10 µM, first compound 0.00316 µM) was 18.5%, the viability, T/C (second compound 10 µM, first compound 0.01 µM) was 12.4% and the viability, T/C (second compound 10 µM, first compound 0.0316 µM) was 13.6%. For the same molecule, the viability, T/C (second compound 10 µM, first compound 0.1 µM) was 12.1%, the viability, T/C (second compound 10 µM, first compound 0.316 µM) was 9.73% and the viability, T/C (second compound 10 µM, first compound 1 µM) was 11.2%.
